In patent US10947260B2, “Phosphinolactone derivatives and pharmaceutical uses thereof” (INSTITUT NATIONAL DE LA SANTE ET DE LA RECHERCHE MEDICALE …, priority 2016, dated 2021):

How the values were obtained:
[1] = system: mice treated with peptide Aβ25-35; assay: In vivo screening of derivatives as neuroprotectors (spontaneous alternation, passive avoidance, ROS level), Aβ25-35 model; conditions: 0.3 mg/kg IP
Method: FIG. 7: Screening of phosphinolactones as neuroprotectors in mice treated with peptide Aβ25-35: (a) spontaneous alternation; (b) passive avoidance step-through latency; (c) Levels of reactive oxygen species in hippocampus. The mice were given compound 3b (0.3, 0.7 mg/kg IP) or a dose of each compound (0.3 mg/kg IP) 20 min before I′Aβ25-35 or the control peptide Sc.Aβ (9 nmol ICV). The animals were tested in the Y-maze on Day 7 after the ICV injections and for passive avoidance on Days 8-9, and then sacrificed. In each graph at (a-c), the 50% protection level compared with the deficit induced by Aβ25-35 is plotted as a dotted line. It is to be noted that at (a), the column represents the median and the error bars represent the deviations 25%-75% (=asymmetric deviations). n=12 at (a, b) and 5-6 at (c). ANOVA on groups 1-4: F(3.63)=7.95, p<0.001 at (b); H=24.1, p<0.0001 at (c); F(3.44)=6.33, p<0.01 at (d). *p<0.05, **p<0.01, ***p<0.001 compared with group (Sc.Aβ+V); #p<0.05, ##p<0.01, ###p<0.001 compared with group (Aβ25-35+V); Dunnett test at (a, c) and Dunn at (b). The values of the groups 5-12 (screened compounds) were analysed by t-test at (a, c) or Mann-Whitney at (b).
From the molecules derived from the synthesis, a panel of 8 derivatives was selected and screened for potential neuroprotective efficacy. The compounds were injected at a dose of 0.3 mg/kg IP, i.e. the maximum non-active dose of 3b and compared with 3b injected at 0.3 and 0.7 mg/kg IP. The compounds were injected […] before the Aß25-35 peptide, and the mice were tested for spontaneous alternation on Day 7, passive avoidance on Days 8 and 9 and the ROS level was measured in the hippocampus (FIG. 7). For each response (spontaneous alternation: FIG. 7a; step-through latency in passive avoidance: FIG. 7b, and DCF fluorescence level: FIG. 7c), a 50% level of the effect between the values of the ScAß and Aß25-35 animals was taken as criterion of efficacy. […] Compound 3c is an isomer at the position of the chlorine atom of 3b. Regarding compound 3n, this has a 5-pyrimidyl group attached to the phosphorus atom, and for compound 3l it is a 4-pyridinyl group.

[2] = system: mice treated with scopolamine; assay: Passive avoidance, scopolamine amnesia model; assay type: in vivo
Method: (§1) FIG. 5: Anti-amnesic effect of compound 3b in mice treated with scopolamine: (a, b) spontaneous alternation in Y-maze, and (c, d) passive avoidance. The mice were given compound 3b (0.03-1.5 mg/kg IP) 10 min before scopolamine (0.5 mg/kg SC), 20 min before the Y-maze session or passive avoidance training. Y-maze test: (a) spontaneous alternation and (b) total number of arm entries; retention of passive avoidance: (c) step-through latency and (d) escape latency. ANOVA: F(6.94)=5.32, p<0.0001 at (a); F(6.94)=10.6, p<0.0001 at (b); H=31.4, p<0.0001 at (c); H=24.3, p<0.001 at (d); n=12-19 per group. *p<0.05, **p<0.01, ***p<0.001 compared with group (Sc.Aβ+V); #p<0.05, ##p<0.01, ###p<0.001 compared with group (Aβ25-35+V); Dunnett test at (a, b) and Dunn at (c, d).
FIG. 6: Analysis of the antagonism of anti-amnesic effects of compound 3b in mice treated with scopolamine: (a, c, e) spontaneous alternation in Y-maze, and (b, d, f) step-through latency at recall session of passive avoidance. The mice were treated with methyllycaconitine (MLA, 1 or 3 mg/kg IP), dihydro-ß-erythroidine (DHßE, 1 or 3 mg/kg IP), or NE100 (1 mg/kg IP), simultaneously with compound 3b (0.1 mg/kg IP) 10 min before scopolamine (S, 0.5 mg/kg SC), 20 min before behavioural session. […]
The apparatus contained two compartments (15×20×15 cm in height) with one light part having walls in white PVC and the other dark with walls in black PVC and a grid floor. […] Step-through latency (STL) i.e. the time taken to enter the dark compartment and the number of cries, were recorded. […] Step-through latency was recorded up to 300 s.
(§2) Finally, a first mechanistic analysis of the pharmacological effect in vivo of compound 3b was carried out. With the objective of confirming that the compound, neuroprotective against amyloid toxicity, could also be anti-amnesic in a pharmacological amnesia model, we first determined its effectiveness against the amnesic effects of scopolamine. […]

[3] = system: mice treated with scopolamine; assay: Spontaneous alternation in Y-maze, scopolamine amnesia model; assay type: in vivo
Method: as §1
FIG. 6: Analysis of the antagonism of anti-amnesic effects of compound 3b in mice treated with scopolamine: (a, c, e) spontaneous alternation in Y-maze, and (b, d, f) step-through latency at recall session of passive avoidance. The mice were treated with methyllycaconitine (MLA, 1 or 3 mg/kg IP), dihydro-ß-erythroidine (DHßE, 1 or 3 mg/kg IP), or NE100 (1 mg/kg IP), simultaneously with compound 3b (0.1 mg/kg IP) 10 min before scopolamine (S, 0.5 mg/kg SC), 20 min before behavioural session. ANOVA: F(5.87)=7.19, p<0.0001 at (a); H=31.3, p<0.0001 at (b); F(5.82)=5.82, p<0.0001 at (c); H=28.8, p<0.0001 at (d); F(4.77)=10.0, p<0.0001 at (e); H=30.5, p<0.0001 at (f); n=12-17 per group. *p<0.05, **p<0.01, ***p<0.001 compared with group (Sc.Aβ+V); #p<0.05, ##p<0.01, ###p<0.001 compared with group (Aβ25-35+V); Dunnett test at (a, b) and Dunn at (c, d).
The animals were tested for spontaneous alternation performance in a Y-maze, an index of spatial working memory. The Y-maze was in grey PVC. Each arm was 40 cm long, 13 cm high, 3 cm wide at the base and 10 cm wide in the upper part, and converging at an equal angle. Each mouse was placed at one end of an arm and was able to move freely through the maze during an 8-min session. The series of arm entries, including any returns in the same arm were visually analysed. Alternation is defined as being consecutive entries in three different arms. The maximum number of alternations is therefore the total number of arm entries less two, and alternation percentage is calculated as (actual alternations/maximum possible alternations)×100. […]
as §2

[4] = system: mice; assay: Forced swim test; assay type: in vivo
Method: FIG. 13: Assays of compound 3b as positive modulator of the sigma-1 protein. […] Male Swiss mice aged 7 weeks (n=10-12 per group) were forced to swim for 15 min on Day 1 and 6 min on Day 2. They were given NE-100 (10 mg/kg ip), 10 min before compound 3b (10 mg/kg ip) and 20 min before the session of Day 2. Immobility was measured over the last 5 minutes of the session. The vehicle solution was distilled water. F(3.42)=4.45, p<0.01; **p<0.01 vs. group V/V, ##p<0.01 vs. group V/3b, Dunnet test. […] Wild-type mice (Wt, n=14-15) and S1R KO mice (n=9-10) were forced to swim 15 min on Day 1 and 6 min on Day 2. They were given compound 3b (10 mg/kg ip) 20 min before the session on Day 2. Immobility was measured during the last 5 minutes of the session. The vehicle solution was distilled water. F(3.49)=6.64, p<0.001; **p<0.01 vs. group Wt/V, Dunnett test. […] Male Swiss mice aged 7 weeks (n=8-23 per group) were forced to swim for 15 min on Day 1 and 6 min on Day 2. They were given igmesine (10, 30 mg/kg ip) and/or compound 3b (10 mg/kg ip) 20 min before the session on Day 2. NE-100 (10 mg/kg ip) was injected 10 min before igmesine and compound 3b. Immobility was measured during the last 5 minutes of the session. The vehicle solution was distilled water. F(6.90)=5.59, p<0.0001; ***p<0.001 vs. group V, ##p<0.01 vs. group V/Igmesine (10)+3B (5), Dunnett test.

[5] = system: mice treated with Aβ25-35; conditions: IP; Aβ25-35 model; cited from earlier work
[6] = antagonist at the two doses tested (1 or 3 mg/kg IP) with 3b 0.1 mg/kg IP
[7] = antagonist 1 mg/kg IP with 3b 0.1 mg/kg IP

With `CC1(C)COP(=O)(c2ccncc2)C(C)(C)N1` (racemic) [Compound 3l, (±)-2-(Pyridin-4-yl)-2-oxo-3,3,5,5-tetramethyl-[1,4,2]-oxazaphosphinane] the “criterion of efficacy: 50% level of the effect between ScAβ and Aβ25-35 animals (spontaneous alternation, step-through latency, DCF fluorescence)” value [1] was “met the criterion for the 3 parameters”.

In the case of `CC1(C)COP(=O)(c2cncnc2)C(C)(C)N1` (racemic) [Compound 3n, (±)-2-(Pyrimidin-5-yl)-2-oxo-3,3,5,5-tetramethyl-[1,4,2]-oxazaphosphinane], the “criterion of efficacy: 50% level of the effect between ScAβ and Aβ25-35 animals (spontaneous alternation, step-through latency, DCF fluorescence)” value [1] is reported as “met the criterion for the 3 parameters”.

In the case of `CO[C@H]1CC=C2CCN3CCC4=C(CC(=O)OC4)[C@]23C1` [DhßE, dihydro-β-erythroidine], the “antagonism of the anti-amnesic effect of compound 3b, passive avoidance” value (shortened to “antagonism … passive avoidance”) [2, 6] is reported as “ineffective” and the “antagonism of the anti-amnesic effect of compound 3b, spontaneous alternation” value (from here on “antagonism … spontaneous alternation”) [3, 6] is reported as “ineffective”.

In the case of `CCN1C[C@]2(COC(=O)c3ccccc3N3C(=O)C[C@H](C)C3=O)CC[C@H](OC)[C@@]34[C@@H]5C[C@H]6[C@H](OC)[C@@H]5[C@](O)(C[C@@H]6OC)[C@@](O)([C@@H](OC)[C@H]23)[C@@H]14` [MLA, methyllycaconitine], the “antagonism … passive avoidance” value [2, 7] is reported as “attenuated the effect” and the “antagonism … spontaneous alternation” value ([3]; antagonist 3 mg/kg IP with 3b 0.1 mg/kg IP) is reported as “blocked the anti-amnesic effect of compound 3b”.

In the case of `CCCN(CCC)CCc1ccc(OC)c(OCCc2ccccc2)c1` [NE100], the “antagonism … passive avoidance” value [2, 7] is reported as “attenuated the effect”, the “blockade of the antidepressant effect of compound 3b” value ([4]; NE-100 10 mg/kg ip, 10 min before 3b 10 mg/kg ip) is reported as “blocked” and the “antagonism … spontaneous alternation” value [3, 7] is reported as “blocked the effect of compound 3b”.

For `CCC(C/C=C/c1ccccc1)(c1ccccc1)N(C)CC1CC1` (centres unmarked) [igmesine], the “activity in forced swim test” value ([4]; 10 mg/kg) was “not active”.

In the case of `CC12CC3CC(C)(C1)CC(N)(C3)C2` [memantine], the “active dose of reference molecules in this model” value [5] is listed as 1 mg/kg.
